Measured values reported in patent publication US8063234B2, “Substituted 7-sulfanylmethyl-, 7-sulfinylmethyl- and 7-sulfonylmethylindoles and the use thereof” (Bayer Schering Pharma Aktiengesellschaft, priority 2008, dated 2011).

Each compound was assayed against T1, CYP3A4 (Homo sapiens, UniProt P08684) (assay: Assay to assess irreversible CYP3A4 inhibition (mechanism-based inhibition) in human liver microsomes). Conditions: 2-20 μM, preincubation 0-50 min, 6β-hydroxytestosterone formation.
T1 construct: human liver microsomes (pool from various individuals); from tissue; host or cells: human liver microsomes (pool from various individuals)
T1 sequence (P08684 whole entry): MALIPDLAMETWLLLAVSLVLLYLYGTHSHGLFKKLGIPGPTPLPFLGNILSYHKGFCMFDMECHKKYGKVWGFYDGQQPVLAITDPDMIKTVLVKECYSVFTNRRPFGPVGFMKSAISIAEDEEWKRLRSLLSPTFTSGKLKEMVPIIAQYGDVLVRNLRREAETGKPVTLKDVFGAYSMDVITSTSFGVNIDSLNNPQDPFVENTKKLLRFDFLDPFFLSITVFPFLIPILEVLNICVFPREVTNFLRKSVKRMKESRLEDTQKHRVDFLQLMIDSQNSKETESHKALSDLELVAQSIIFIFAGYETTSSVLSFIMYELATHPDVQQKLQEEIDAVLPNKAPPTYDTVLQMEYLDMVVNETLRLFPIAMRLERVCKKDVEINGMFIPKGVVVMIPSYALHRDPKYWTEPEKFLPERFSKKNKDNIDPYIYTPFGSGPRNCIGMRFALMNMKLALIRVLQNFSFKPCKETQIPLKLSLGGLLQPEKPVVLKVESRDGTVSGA
Assay type: in vitro ADME
Text: 8. Assay to Assess Irreversible CYP3A4 Inhibition
Cytochrom P450 enzyme inhibition, especially irreversible enzyme inhibition, also referred to as mechanism-based inhibition (MBI), is an unwanted metabolic property of a substance which may, on concurrent administration of other medicaments, lead to considerable drug interactions. Criteria for the presence of an irreversible inhibition are a time-, concentration- and cofactor- (nicotinamide adenine dinucleotide phosphate, NADPH) dependent inhibition. To this end, the compounds of the invention are incubated in vitro with human liver microsomes, the influence on the CYP3A4 activity and the metabolic degradation of the novel active ingredient is determined, and the prototypical parameters kinact, Ki and the partition ratio r are ascertained therefrom.
The compounds of the invention are incubated with concentrations of 2-20 μM. To this end, stock solutions of the active ingredients with a concentration of 0.2-2 mM are prepared in acetonitrile and then pipetted with a 1:100 dilution into the incubation mixture. The liver microsomes are incubated in 50 mM potassium phosphate buffer (pH 7.4) with and without NADPH-generating system consisting of 1 mM NADP^+, 5 mM glucose 6-phosphate and 1 unit of glucose 6-phosphate dehydrogenase, at 37° C. After defined preincubation times of 0-50 min, aliquots are removed from these mixtures, diluted 1:25 in a new incubation, and incubated in the presence of testosterone and new NADPH-generating system again for 20 min. These incubation mixtures are stopped with acetonitrile (final concentration about 30% v/v), and the protein is removed by centrifugation at about 15 000×g. The samples stopped in this way are either analyzed directly or stored at −20° C. until analyzed.
The analysis takes place by high performance liquid chromatography with mass spectrometry detection (LC-MS). The formation of 6β-hydroxytestosterone as measure of CYP3A4 activity, and the test substance still remaining is quantified. The parameters kinact, Ki and the partition ratio r are determined therefrom so as to assess the novel active ingredients in relation to MBI.
A Partition ratio r of 100 was found for CS(=O)(=O)Cc1cccc2c(C(CCC#N)c3ccc(C(F)(F)F)cc3)c[nH]c12 (single isomer, unassigned) [Example 56-1, 4-{7-[(Methylsulfonyl)methyl]-1H-indol-3-yl}-4-[4-(trifluoromethyl)phenyl]butanonitrile] in this work.
A Partition ratio r of 220 was found for CS(=O)(=O)Cc1cccc2c(C(CCC#N)c3ccc(Cl)cc3F)c[nH]c12 (single isomer, unassigned) [Example 59-1, 4-(4-Chloro-2-fluorophenyl)-4-{7-[(methylsulfonyl)methyl]-1H-indol-3-yl}butanonitrile] in this work.
A Partition ratio r of 250 was found for CS(=O)(=O)Cc1cccc2c(C(c3ccc(F)cc3)c3ccc(Cl)cc3F)c[nH]c12 (single isomer, unassigned) [Example 118-1, 3-[(4-Chloro-2-fluorophenyl)(4-fluorophenyl)methyl]-7-[(methylsulfonyl)methyl]-1H-indole] in this work.
A Partition ratio r greater than 200 was found for CS(=O)(=O)Cc1cccc2c(C(c3ccc(Cl)cc3)C3CC3(F)F)c[nH]c12 (single isomer, unassigned) [Example 261-1, 3-[(4-Chlorophenyl)(2,2-difluorocyclopropyl)methyl]-7-[(methylsulfonyl)methyl]-1H-indole] in this work.
A Partition ratio r greater than 200 was found for CS(=O)(=O)Cc1cc(F)cc2c(C(c3ccc(F)cc3Cl)C3CC3C#N)c[nH]c12 (single isomer, unassigned) [Example 266-1, 2-[(2-Chloro-4-fluorophenyl){5-fluoro-7-[(methylsulfonyl)methyl]-1H-indol-3-yl}methyl]cyclopropanecarbonitrile] in this work.
A Partition ratio r greater than 200 was found for CS(=O)(=O)Cc1cc(F)cc2c(C(c3ccc(C(F)(F)F)cc3F)C3CC3C#N)c[nH]c12 (single isomer, unassigned) [Example 271-1-1, 2-({5-Fluoro-7-[(methylsulfonyl)methyl]-1H-indol-3-yl}[2-fluoro-4-(trifluoro-methyl)phenyl]methyl)cyclopropanecarbonitrile] in this work.
A Partition ratio r greater than 200 was found for CS(=O)(=O)Cc1cc(F)cc2c(C(c3ccc(Cl)cc3F)C3CC3C#N)c[nH]c12 (single isomer, unassigned) [Example 273-1-2, 2-[(4-Chloro-2-fluorophenyl){5-fluoro-7-[(methylsulfonyl)methyl]-1H-indol-3-yl}methyl]cyclopropanecarbonitrile] in this work.
A Partition ratio r greater than 200 was found for CS(=O)(=O)Cc1cc(F)cc2c(C(c3ccc(Cl)cc3)C3CC3C#N)c[nH]c12 (single isomer, unassigned) [Example 277-1-1, 2-[(4-Chlorophenyl){5-fluoro-7-[(methylsulfonyl)methyl]-1H-indol-3-yl}methyl]cyclopropane-carbonitrile] in this work.
A Partition ratio r greater than 500 was found for CS(=O)(=O)Cc1cccc2c(C(CCC#N)c3ccc4sccc4c3)c[nH]c12 (centres unmarked) [Example 73, 4-(1-Benzothiophen-5-yl)-4-{7-[(methylsulfonyl)methyl]-1H-indol-3-yl}butanonitrile] in this work.
A Partition ratio r greater than 400 was found for CS(=O)(=O)Cc1cccc2c(C3(C4CC4)CCc4cc(F)ccc43)c[nH]c12 (centres unmarked) [Example 107, 3-(1-Cyclopropyl-5-fluoro-2,3-dihydro-1H-inden-1-yl)-7-[(methylsulfonyl)methyl]-1H-indole] in this work.
A Partition ratio r greater than 500 was found for CS(=O)(=O)Cc1cccc2c(C(c3ccc(F)cc3)c3ccc(C(F)(F)F)cc3)c[nH]c12 (centres unmarked) [Example 113, 3-{(4-Fluorophenyl) [4-(trifluoromethyl)phenyl]methyl}-7-[(methylsulfonyl)methyl]-1H-indole] in this work.
A Partition ratio r of 90 was found for CCC(CCO)(c1ccc(Cl)cc1)c1c[nH]c2c(CS(C)(=O)=O)cccc12 (centres unmarked) [Example 147, 3-(4-Chlorophenyl)-3-{7-[(methylsulfonyl)methyl]-1H-indol-3-yl}pentan-1-ol] in this work.
A Partition ratio r greater than 500 was found for CS(=O)(=O)Cc1cccc2c(C(CCC#N)c3ccc4c(c3)OC(F)(F)O4)c[nH]c12 (centres unmarked) [Example 169, 4-(2,2-Difluoro-1,3-benzodioxol-5-yl)-4-{7-[(methylsulfonyl)methyl]-1H-indol-3-yl}butanonitrile] in this work.
A Partition ratio r of 120 was found for CCC(CCC#N)(c1ccc(Cl)cc1)c1c[nH]c2c(CS(C)(=O)=O)cccc12 (centres unmarked) [Example 172, 4-(4-Chlorophenyl)-4-{7-[(methylsulfonyl)methyl]-1H-indol-3-yl}hexanonitrile] in this work.
